Laboratory results: ChEMBL document CHEMBL1201862, “PubChem BioAssay data set” (2004)
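Test compounds were applied to cells in 96-well plates for 48 hours at 5 doses. Here, GI50 denotes the concentration required for 50% inhibition of growth.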 The source made the active and inactive calls. No stated cut-off is given here; in the data, active = GI50 up to about 1.1 µM and inactive = higher.

Columns and labels:
Assay in all cases: NCI anticancer screen, dose series, 48 h
[1] = test system: IGROV-1
[2] = test system: KM12
[3] = test system: SN12C
[4] = test system: T47D
[5] = test system: MOLT-4
[6] = test system: SR
[7] = test system: NCI-H23
[8] = test system: PC-3
[9] = test system: A549
[10] = test system: U-251
[11] = test system: OVCAR-8
[12] = test system: NCI/ADR-RES
[13] = test system: DU-145
[14] = test system: MDA-N
[15] = test system: HL-60
[16] = test system: SK-MEL-2
[17] = test system: HT-29
[18] = test system: SF-539
[19] = test system: ACHN
[20] = test system: HCC 2998

| SMILES | GI50 [1] | GI50 [2] | GI50 [3] | GI50 [4] | GI50 [5] | GI50 [6] | GI50 [7] | GI50 [8] | GI50 [9] | GI50 [10] | GI50 [11] | GI50 [12] | GI50 [13] | GI50 [14] | GI50 [15] | GI50 [16] | GI50 [17] | GI50 [18] | GI50 [19] | GI50 [20] |
| --- | --- | --- | --- | --- | --- | --- | --- | --- | --- | --- | --- | --- | --- | --- | --- | --- | --- | --- | --- | --- |
| CCC(C#N)N(Cc1ccc(CN(C(=O)c2ccccc2)C(C#N)CC)cc1)C(=O)c1ccccc1 (configuration not stated) | 18.4 µM (inactive) | 21.7 µM (inactive) | 27.1 µM (inactive) | 9.02 µM (inactive) | 15.8 µM (inactive) | 54.6 µM (inactive) | 25.7 µM (inactive) | 26 µM (inactive) | 20.6 µM (inactive) | 22.6 µM (inactive) | 31.6 µM (inactive) | 18.2 µM (inactive) | 28.6 µM (inactive) | 32.4 µM (inactive) | 29.8 µM (inactive) | 21.7 µM (inactive) | 14.7 µM (inactive) | 18.6 µM (inactive) | 26.4 µM (inactive) | 14.6 µM (inactive) |
| Cc1c2c3ccccc3nc-2n(C)c2ccccc12 | 2.32 µM (inactive) | 1.15 µM (inactive) | 1.64 µM (inactive) | 3.08 µM (inactive) | 0.339 µM (active) | 1.44 µM (inactive) | 2.5 µM (inactive) | 2.17 µM (inactive) | 1.57 µM (inactive) | 2.54 µM (inactive) | 1.69 µM (inactive) | 2.01 µM (inactive) | 3.67 µM (inactive) | 2.72 µM (inactive) | 3.29 µM (inactive) |  | 1.34 µM (inactive) | 2.99 µM (inactive) | 0.611 µM (active) | 2.64 µM (inactive) |
| COC(=O)C1=C(O)C(C(=O)OC)[C@]2(O)[C@H](C(=O)OC)[C@H]1C[C@@H](c1ccc(Cl)cc1)[C@H]2C(=O)OC (some centres not stated) | 14.5 µM (inactive) | 11.5 µM (inactive) | 5.16 µM (inactive) | 6.58 µM (inactive) | 3.64 µM (inactive) | 4.17 µM (inactive) | 7.18 µM (inactive) | 4.65 µM (inactive) | 5.64 µM (inactive) | 6.05 µM (inactive) | 5.89 µM (inactive) | 3.29 µM (inactive) | 7.11 µM (inactive) | 3.78 µM (inactive) | 1.75 µM (inactive) | 1.79 µM (inactive) | 12 µM (inactive) | 4.22 µM (inactive) | 7.45 µM (inactive) | 6.79 µM (inactive) |
| Cc1c(C(=O)O)n2c(C)nnc2c2ccccc12 | > 100 µM (inactive) | > 100 µM (inactive) | > 100 µM (inactive) | > 100 µM (inactive) | > 100 µM (inactive) | > 100 µM (inactive) | > 100 µM (inactive) | > 100 µM (inactive) | > 100 µM (inactive) | > 100 µM (inactive) | > 100 µM (inactive) | > 100 µM (inactive) | > 100 µM (inactive) | > 100 µM (inactive) |  | > 100 µM (inactive) | > 100 µM (inactive) | > 100 µM (inactive) | > 100 µM (inactive) | > 100 µM (inactive) |
| C#CCOCC12C=CC(O1)C1COC(=O)C12 (configuration not stated) | > 100 µM (inactive) | > 100 µM (inactive) | > 100 µM (inactive) | > 100 µM (inactive) | > 100 µM (inactive) | > 100 µM (inactive) | > 100 µM (inactive) | > 100 µM (inactive) | > 100 µM (inactive) | > 100 µM (inactive) | > 100 µM (inactive) | > 100 µM (inactive) | > 100 µM (inactive) | > 100 µM (inactive) | > 100 µM (inactive) |  | > 100 µM (inactive) | > 100 µM (inactive) | > 100 µM (inactive) | > 100 µM (inactive) |
| Clc1cccc(-c2nc3cccc4c3n2Cc2ncccc2-4)c1 | 54.3 µM (inactive) | > 100 µM (inactive) | > 100 µM (inactive) | > 100 µM (inactive) |  | 24 µM (inactive) | > 100 µM (inactive) | 73.6 µM (inactive) | 21.9 µM (inactive) | 30.3 µM (inactive) | 92.3 µM (inactive) | > 100 µM (inactive) | > 100 µM (inactive) | > 100 µM (inactive) |  |  | > 100 µM (inactive) | 41.8 µM (inactive) | 8.2 µM (inactive) | > 100 µM (inactive) |
| Cc1nc(O)nc(NNCc2ccc(Cl)cc2)c1C(=O)Nc1ccc(Cl)cc1 | > 100 µM (inactive) | > 100 µM (inactive) | > 100 µM (inactive) | > 100 µM (inactive) | > 100 µM (inactive) | > 100 µM (inactive) | > 100 µM (inactive) | > 100 µM (inactive) | > 100 µM (inactive) | > 100 µM (inactive) | > 100 µM (inactive) | > 100 µM (inactive) | 29.4 µM (inactive) | 81.1 µM (inactive) | > 100 µM (inactive) | > 100 µM (inactive) |  | > 100 µM (inactive) |  | > 100 µM (inactive) |
